From patent publication US20240425479A1, “HALO-SUBSTITUTED AMINO AZA-HETEROARYL COMPOUNDS AS INHIBITORS OF THE HAEMATOPOIETIC PROGENITOR KINASE 1 (HPK1)” (priority 2021, published 2024)

What was measured:
[1] = target: T1, Recombinant (1-346) HPK1 (h) (Homo sapiens, UniProt Q92918); assay: HPK1 human STE kinase enzymatic radiometric assay; type: biochemical; conditions: read-out: HPK1 IC50 nM Range
T1 construct: Recombinant (1-346) HPK1 (h) is incubated with 8 mM MOPS pH 7.0
T1 sequence (Q92918 1-346): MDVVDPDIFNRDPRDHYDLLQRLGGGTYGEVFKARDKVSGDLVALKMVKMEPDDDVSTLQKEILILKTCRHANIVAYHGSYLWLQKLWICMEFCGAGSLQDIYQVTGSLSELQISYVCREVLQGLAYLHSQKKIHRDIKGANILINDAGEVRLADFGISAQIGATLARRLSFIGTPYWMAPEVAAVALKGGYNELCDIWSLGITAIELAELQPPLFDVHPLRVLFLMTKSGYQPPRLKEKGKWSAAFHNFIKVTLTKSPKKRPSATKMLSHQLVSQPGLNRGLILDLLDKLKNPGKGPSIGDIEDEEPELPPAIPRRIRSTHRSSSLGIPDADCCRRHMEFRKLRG
In short: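 Recombinant HPK1 (1-346) incubated 40 min at RT with 0.33 mg/mL myelin basic protein and [gamma-33P]-ATP in 8 mM MOPS pH 7.0, 0.2 mM EDTA, 10 mM Mg acetate; reaction started with Mg/ATP. Stopped with 0.5% phosphoric acid, spotted on P30 filtermat, washed, scintillation counted. Compounds tested as 9-point 3-fold dilutions.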

Lck (h) = Lck (h) (Homo sapiens, UniProt P06239); assay: Lck human STE kinase enzymatic radiometric assay; type: biochemical; conditions: read-out: Lck IC50 nM Range
Description: (b) Lck Human STE Kinase Enzymatic Radiometric Assay
Lck (h) is incubated with 50 mM Tris pH 7.5, 0.1 mM EGTA, 0.1 mM Na3VO4, 250 uM KVEKIGEGTYGVVYK (Cdc2 peptide), 10 mM MgAcetate and [gamma-33P]-ATP (specific activity and concentration as required). The reaction is initiated by the addition of the Mg/ATP mix. After incubation for 40 minutes at room temperature, the reaction is stopped by the addition of phosphoric acid to a concentration of 0.5%, 10 μL of the reaction is then spotted onto a P30 filtermat and washed four times for 4 minutes in 0.425% phosphoric acid and once in methanol prior to drying and scintillation counting. For more details on the kinase assay procedures see: Gao, Y. et. al.; Biochem J., 451 (2): 313-328, 2013.

Chain of Lck (h) (P06239 whole entry): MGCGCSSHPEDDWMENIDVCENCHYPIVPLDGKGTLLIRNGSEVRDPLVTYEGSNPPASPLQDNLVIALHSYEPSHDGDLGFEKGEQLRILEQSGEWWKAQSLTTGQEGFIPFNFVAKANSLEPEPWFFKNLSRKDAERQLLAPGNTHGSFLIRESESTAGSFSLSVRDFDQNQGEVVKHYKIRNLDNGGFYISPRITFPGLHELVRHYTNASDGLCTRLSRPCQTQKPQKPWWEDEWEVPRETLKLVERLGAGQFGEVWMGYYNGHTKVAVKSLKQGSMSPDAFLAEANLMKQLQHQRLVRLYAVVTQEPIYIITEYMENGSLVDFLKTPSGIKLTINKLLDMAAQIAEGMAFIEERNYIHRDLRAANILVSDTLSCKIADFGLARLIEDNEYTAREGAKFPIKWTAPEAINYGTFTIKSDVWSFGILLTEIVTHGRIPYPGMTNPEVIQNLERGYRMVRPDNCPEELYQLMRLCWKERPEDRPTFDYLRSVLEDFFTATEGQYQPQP

Compound `Nc1nc(F)c(-c2ccc(N3CCN(CC4CC4)CC3)cc2)nc1-c1cc(F)c2c(=O)[nH]ccc2c1` [Example I-24, 6-(3-amino-6-(4-(4-(cyclopropylmethyl)piperazin-1-yl)phenyl)-5-fluoropyrazin-2-yl)-8-fluoroisoquinolin-1(2H)-one] has an IC50 [1] of 0.1 to 10 nM and an IC50 (Lck (h)) of 101 to 1000 nM.

Work on `Nc1nc(F)c(-c2ccc(N3CCN(CC4CC4)CC3)cc2)nc1-c1cc2cc[nH]c(=O)c2cc1F` [Example I-25, 6-(3-amino-6-(4-(4-(cyclopropylmethyl)piperazin-1-yl)phenyl)-5-fluoropyrazin-2-yl)-7-fluoroisoquinolin-1(2H)-one] yielded an IC50 [1] of 0.1 to 10 nM and an IC50 (Lck (h)) of 101 to 1000 nM.

`Nc1nc(F)c(-c2ccc(N3CCN(CCC4CC4)CC3)cc2)nc1-c1cc(F)c2c(c1)CCNC2=O` [Example I-26, 6-(3-amino-6-(4-(4-(2-cyclopropylethyl)piperazin-1-yl)phenyl)-5-fluoropyrazin-2-yl)-8-fluoro-3,4-dihydroisoquinolin-1(2H)-one] gave an IC50 [1] of 0.1 to 10 nM and an IC50 (Lck (h)) of over 1000 nM.

`CCN1CCN(c2ccc(-c3nc(-c4ccc5c(=O)[nH]ccc5c4)c(N)nc3F)cc2)CC1` [Example I-32, 6-(3-amino-6-(4-(4-ethylpiperazin-1-yl)phenyl)-5-fluoropyrazin-2-yl)isoquinolin-1(2H)-one] showed an IC50 [1] of 0.1 to 10 nM and an IC50 (Lck (h)) of over 1000 nM.

`Nc1nc(F)c(-c2ccc(N3CCOCC3)cc2)nc1-c1cc(F)c2c(=O)[nH]ccc2c1` [Example I-36, 6-(3-amino-5-fluoro-6-(4-morpholinophenyl)pyrazin-2-yl)-8-fluoroisoquinolin-1(2H)-one] was tested, and the IC50 [1] was 0.1 to 10 nM and the IC50 (Lck (h)) was over 1000 nM.

`CC(C)N1CCN(c2ccc(-c3nc(-c4ccc5c(=O)[nH]cnc5c4)c(N)nc3F)cc2)CC1` [Example I-37, 7-(3-amino-5-fluoro-6-(4-(4-isopropylpiperazin-1-yl)phenyl)pyrazin-2-yl)quinazolin-4(3H)-one] gave an IC50 [1] of 0.1 to 10 nM and an IC50 (Lck (h)) of over 1000 nM.

`CC(C)N1CCN(c2ccc(-c3nc(-c4ccc5c(=O)[nH]ncc5c4)c(N)nc3F)cc2)CC1` [Example I-38, 6-(3-amino-5-fluoro-6-(4-(4-isopropylpiperazin-1-yl)phenyl)pyrazin-2-yl)phthalazin-1(2H)-one] was tested, and the IC50 [1] was 11 to 100 nM and the IC50 (Lck (h)) was over 1000 nM.

Work on `Cc1nc2cc(-c3nc(-c4ccc(N5CCN(C(C)C)CC5)cc4)c(F)nc3N)ccc2c(=O)[nH]1` [Example I-39, 7-(3-amino-5-fluoro-6-(4-(4-isopropylpiperazin-1-yl)phenyl)pyrazin-2-yl)-2-methylquinazolin-4(3H)-one] yielded an IC50 [1] of 11 to 100 nM and an IC50 (Lck (h)) of over 1000 nM.

`CN(C)Cc1cc(-c2nc(-c3ccc4c(=O)[nH]cc(F)c4c3)c(N)nc2F)ccc1C1CCOCC1` [Example I-42, 6-(3-amino-6-(3-((dimethylamino)methyl)-4-(tetrahydro-2H-pyran-4-yl)phenyl)-5-fluoropyrazin-2-yl)-4-fluoroisoquinolin-1(2H)-one] showed an IC50 [1] of 0.1 to 10 nM and an IC50 (Lck (h)) of over 1000 nM.

For `Nc1nc(F)c(-c2ccc(N3CCN(C4COC4)CC3)cc2)nc1-c1cc(F)c2c(c1)CCNC2=O` [Example I-44, 6-(3-amino-5-fluoro-6-(4-(4-(oxetan-3-yl)piperazin-1-yl)phenyl)pyrazin-2-yl)-8-fluoro-3,4-dihydroisoquinolin-1(2H)-one], the IC50 [1] was 0.1 to 10 nM and the IC50 (Lck (h)) was over 1000 nM.

`Nc1nc(F)c(-c2ccc(N3CCN(C4CCC4)CC3)cc2)nc1-c1cc2c(cc1F)C(=O)NCC2` [Example I-48, 6-(3-amino-6-(4-(4-cyclobutylpiperazin-1-yl)phenyl)-5-fluoropyrazin-2-yl)-7-fluoro-3,4-dihydroisoquinolin-1(2H)-one] was tested, and the IC50 [1] was 0.1 to 10 nM and the IC50 (Lck (h)) was over 1000 nM.

`CN(C)Cc1cc(-c2nc(-c3ccc4c(c3)CCNC4=O)c(N)nc2F)ccc1C1CCOCC1` [Example I-59, 6-(3-amino-6-(3-((dimethylamino)methyl)-4-(tetrahydro-2H-pyran-4-yl)phenyl)-5-fluoropyrazin-2-yl)-3,4-dihydroisoquinolin-1(2H)-one] gave an IC50 [1] of 0.1 to 10 nM and an IC50 (Lck (h)) of over 1000 nM.

`CN(C)Cc1cc(-c2nc(-c3cc4c(cc3F)C(=O)NCC4)c(N)nc2F)ccc1C1CCOCC1` [Example I-60, 6-(3-amino-6-(3-((dimethylamino)methyl)-4-(tetrahydro-2H-pyran-4-yl)phenyl)-5-fluoropyrazin-2-yl)-7-fluoro-3,4-dihydroisoquinolin-1(2H)-one] gave an IC50 [1] of 0.1 to 10 nM and an IC50 (Lck (h)) of over 1000 nM.

Work on `Cc1c[nH]c(=O)c2ccc(-c3nc(-c4ccc(N5CCN(C(C)C)CC5)cc4)c(F)nc3N)cc12` [Example I-62, 6-(3-amino-5-fluoro-6-(4-(4-isopropylpiperazin-1-yl)phenyl)pyrazin-2-yl)-4-methylisoquinolin-1(2H)-one] yielded an IC50 [1] of 0.1 to 10 nM and an IC50 (Lck (h)) of 101 to 1000 nM.

Compound `CN(C)Cc1cc(-c2nc(-c3ccc4c(c3)CCNC4=O)c(N)nc2F)ccc1N1CCOCC1` [Example I-64, 6-(3-amino-6-(3-((dimethylamino)methyl)-4-morpholinophenyl)-5-fluoropyrazin-2-yl)-3,4-dihydroisoquinolin-1(2H)-one] has an IC50 [1] of 0.1 to 10 nM and an IC50 (Lck (h)) of over 1000 nM.

Work on `CC(C)N1CCN(c2ccc(-c3nc(-c4ccc5c(=O)[nH]cc(F)c5c4)c(N)nc3F)cc2)CC1` [Example I-66, 6-(3-amino-5-fluoro-6-(4-(4-isopropylpiperazin-1-yl)phenyl)pyrazin-2-yl)-4-fluoroisoquinolin-1(2H)-one] yielded an IC50 [1] of 0.1 to 10 nM and an IC50 (Lck (h)) of over 1000 nM.

Work on `Cc1cc2cc(-c3nc(-c4ccc(N5CCN(C(C)C)CC5)cc4)c(F)nc3N)cc(F)c2c(=O)[nH]1` [Example I-67, 6-(3-amino-5-fluoro-6-(4-(4-isopropylpiperazin-1-yl)phenyl)pyrazin-2-yl)-8-fluoro-3-methylisoquinolin-1(2H)-one] yielded an IC50 [1] of 0.1 to 10 nM and an IC50 (Lck (h)) of over 1000 nM.

`Cc1[nH]c(=O)c2ccc(-c3nc(-c4ccc(N5CCN(C(C)C)CC5)cc4)c(F)nc3N)cc2c1F` [Example I-71, 6-(3-amino-5-fluoro-6-(4-(4-isopropylpiperazin-1-yl)phenyl)pyrazin-2-yl)-4-fluoro-3-methylisoquinolin-1(2H)-one] gave an IC50 [1] of 0.1 to 10 nM and an IC50 (Lck (h)) of over 1000 nM.

In the case of `Cc1c[nH]c(=O)c2ccc(-c3nc(-c4ccc(N5CCN(CC6CC6)CC5)cc4)c(F)nc3N)cc12` [Example I-72, 6-(3-amino-6-(4-(4-(cyclopropylmethyl)piperazin-1-yl)phenyl)-5-fluoropyrazin-2-yl)-4-methylisoquinolin-1(2H)-one], the IC50 [1] is reported as 0.1 to 10 nM and the IC50 (Lck (h)) is reported as over 1000 nM.

`CC(C)N1CCN(c2ccc(-c3nc(-c4ccc5c(=O)[nH]cc(Cl)c5c4)c(N)nc3F)cc2)CC1` [Example I-78, 6-(3-amino-5-fluoro-6-(4-(4-isopropylpiperazin-1-yl)phenyl)pyrazin-2-yl)-4-chloroisoquinolin-1(2H)-one] gave an IC50 [1] of 0.1 to 10 nM and an IC50 (Lck (h)) of 101 to 1000 nM.

`CN1C[C@@H]2C[C@]2(c2ccc(-c3nc(-c4ccc5c(=O)[nH]cc(F)c5c4)c(N)nc3F)cc2)C1` [Example I-80, 6-(3-amino-5-fluoro-6-(4-((1S,5R)-3-methyl-3-azabicyclo[3.1.0]hexan-1-yl)phenyl)pyrazin-2-yl)-4-fluoroisoquinolin-1(2H)-one] was tested, and the IC50 [1] was 0.1 to 10 nM and the IC50 (Lck (h)) was over 1000 nM.

With `CN(C)Cc1cc(-c2nc(-c3cc(F)c4c(c3)CCNC4=O)c(N)nc2F)ccc1C1CCOCC1` [Example I-83, 6-(3-amino-6-(3-((dimethylamino)methyl)-4-(tetrahydro-2H-pyran-4-yl)phenyl)-5-fluoropyrazin-2-yl)-8-fluoro-3,4-dihydroisoquinolin-1(2H)-one] the IC50 [1] was 0.1 to 10 nM and the IC50 (Lck (h)) was over 1000 nM.

In the case of `CC(C)N1CCN(c2ccc(-c3nc(-c4cc(F)c5c(=O)[nH]cc(F)c5c4)c(N)nc3F)cc2)CC1` [Example I-85, 6-(3-amino-5-fluoro-6-(4-(4-isopropylpiperazin-1-yl)phenyl)pyrazin-2-yl)-4,8-difluoroisoquinolin-1(2H)-one], the IC50 [1] is reported as 0.1 to 10 nM and the IC50 (Lck (h)) is reported as over 1000 nM.

Work on `Cc1nc2cc(-c3nc(-c4ccc(C5CCOCC5)c(CN(C)C)c4)c(F)nc3N)cc(F)c2c(=O)[nH]1` [Example I-91, 7-(3-amino-6-(3-((dimethylamino)methyl)-4-(tetrahydro-2H-pyran-4-yl)phenyl)-5-fluoropyrazin-2-yl)-5-fluoro-2-methylquinazolin-4(3H)-one] yielded an IC50 [1] of 0.1 to 10 nM and an IC50 (Lck (h)) of over 1000 nM.

With `Cc1nc2cc(-c3nc(-c4ccc(C5CCOCC5)c(CN(C)C)c4)c(F)nc3N)ccc2c(=O)[nH]1` [Example I-92, 7-(3-amino-6-(3-((dimethylamino)methyl)-4-(tetrahydro-2H-pyran-4-yl)phenyl)-5-fluoropyrazin-2-yl)-2-methylquinazolin-4(3H)-one] the IC50 [1] was 0.1 to 10 nM and the IC50 (Lck (h)) was over 1000 nM.
